Publication PMC3364022 (Journal of the American Chemical Society, 2011)
Where a SMILES comes first, the peptide text is derived from it. [ ]: non-standard residue; d: D form. β3hW = N[C@H](CC(=O)O)Cc1c[nH]c2ccccc12; β3hY = N[C@H](CC(=O)O)Cc1ccc(O)cc1; β3hR = N=C(N)NCCC[C@H](N)CC(=O)O; β3hF = N[C@H](CC(=O)O)Cc1ccccc1; β3hQ = NC(=O)CC[C@H](N)CC(=O)O; βAla = NCCC(=O)O

Target: Bcl-xL (Homo sapiens, UniProt Q07817)
Assay: Competition fluorescence polarization
Assay type: binding
Settings: competition FP Ki, relative to α-peptide 1

Bcl-xL, sequence (Q07817 whole entry): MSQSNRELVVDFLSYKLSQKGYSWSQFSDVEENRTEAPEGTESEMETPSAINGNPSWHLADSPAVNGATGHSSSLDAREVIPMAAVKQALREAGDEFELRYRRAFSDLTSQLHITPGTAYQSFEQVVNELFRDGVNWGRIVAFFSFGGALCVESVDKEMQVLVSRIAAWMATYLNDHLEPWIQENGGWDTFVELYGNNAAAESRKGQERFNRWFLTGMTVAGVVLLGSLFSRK

In the case of CC[C@H](C)[C@H](NC(C)=O)C(=O)N[C@H](CC(=O)N[C@H](C(=O)N[C@@H](C)C(=O)N[C@@H](CCC(N)=O)CC(=O)N[C@@H](CCC(=O)O)C(=O)N[C@@H](CC(C)C)C(=O)N[C@@H](CCCNC(=N)N)CC(=O)N[C@@H](CCCNC(=N)N)C(=O)N[C@H](C(=O)NCCC(=O)N[C@@H](CC(=O)O)C(=O)N[C@@H](CCC(=O)O)C(=O)N[C@H](CC(=O)N[C@@H](CC(N)=O)C(=O)N[C@@H](C)C(=O)N[C@H](CC(=O)N[C@@H](Cc1ccc(O)cc1)C(N)=O)Cc1ccc(O)cc1)Cc1ccccc1)[C@@H](C)CC)[C@@H](C)CC)Cc1c[nH]c2ccccc12 [3c] (Ac-I[β3hW]IA[β3hQ]EL[β3hR]RI[βAla]DE[β3hF]NA[β3hY]Y-NH2), the “Affinity for Bcl-xL, fold weaker than observed for 1” value is reported as 23 fold.
